Source: PubChem BioAssay (NCI)
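Five compound concentrations were applied to cells in 96-well plates for 48 hours; endpoints were derived by simple linear interpolation of the resulting dose-response curve. TGI marks complete inhibition of growth.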

What was measured:
Experiment in all cases: NCI-60 cell line screen, 48 h
[1] = test system: 786-0 renal
[2] = test system: A498 renal
[3] = test system: A549 NSCLC
[4] = test system: ACHN renal
[5] = test system: CAKI-1 renal
[6] = test system: CCRF-CEM leukemia
[7] = test system: COLO 205 colon
[8] = test system: DU-145 prostate
[9] = test system: EKVX NSCLC
[10] = test system: HCT-116 colon
[11] = test system: HCT-15 colon
[12] = test system: HOP-62 NSCLC
[13] = test system: HOP-92 NSCLC
[14] = test system: HS 578T breast
[15] = test system: HT29 colon
[16] = test system: IGROV1 ovarian
[17] = test system: K-562 leukemia
[18] = test system: KM12 colon
[19] = test system: LOX IMVI melanoma
[20] = test system: M14 melanoma
[21] = test system: MALME-3M melanoma
[22] = test system: MCF7 breast
[23] = test system: MDA-MB-231 breast
[24] = test system: MDA-MB-435
[25] = test system: MDA-N
[26] = test system: MOLT-4 leukemia
[27] = test system: NCI-H226 lung
[28] = test system: NCI-H23 lung
[29] = test system: NCI-H460 lung
[30] = test system: NCI-H522 lung
[31] = test system: NCI/ADR-RES ovarian
[32] = test system: OVCAR-3 ovarian
[33] = test system: OVCAR-4 ovarian
[34] = test system: OVCAR-5 ovarian
[35] = test system: OVCAR-8 ovarian
[36] = test system: PC-3 prostate
[37] = test system: RPMI-8226 leukemia
[38] = test system: RXF 393 renal
[39] = test system: SF-268 CNS
[40] = test system: SF-295 CNS
[41] = test system: SF-539 CNS
[42] = test system: SK-MEL-2 melanoma
[43] = test system: SK-MEL-28 melanoma
[44] = test system: SK-MEL-5 melanoma
[45] = test system: SK-OV-3 ovarian
[46] = test system: SN12C renal
[47] = test system: SNB-19 CNS
[48] = test system: SNB-75 CNS
[49] = test system: SR leukemia
[50] = test system: SW-620 colon
[51] = test system: T-47D breast
[52] = test system: TK-10 renal
[53] = test system: U251 CNS
[54] = test system: UACC-257 melanoma
[55] = test system: UACC-62 melanoma
[56] = test system: UO-31 renal
[57] = test system: BT-549 breast
[58] = test system: HCC-2998 colon
[59] = test system: HL-60(TB) leukemia

Measured: TGI

COc1ccc(N(CN2C(=O)CCC2OC)C(C)=O)cc1 (stereo unspecified)
not listed: [57] | [58] | [59]
> 100 µM: all other assays above

Cc1cc(O)c(C=NC(=S)c2ccncc2)c(=O)o1
not listed: [17] | [37] | [51]
> 100 µM: all other assays above

COc1cc(C2c3cc4c(cc3[C@@H](Nc3ccc(F)cc3)C3CO[C@@H](O)[C@H]23)OCO4)cc(OC)c1O (stereo partly specified)
12.8 µM: [34]
8.47 µM: [53]
15 µM: [30]
6.88 µM: [4]
12.6 µM: [41]
5.23 µM: [59]
7.72 µM: [6]
14.7 µM: [14]
8.28 µM: [56]
4.43 µM: [26]
10.3 µM: [40]
not listed: [2] | [5] | [8] | [13] | [15] | [19] | [21] | [27] | [28] | [32] | [38] | [42] | [49] | [55] | [57]
> 25 µM: all other assays above
